Values belong to the compound of their own block, whether it stands above or below them.
Columns and labels:
[1] = system: HLF cells; experiment: Cell death and cell growth suppression rate of HLF cells, 3D cell culture spheroid counter Cell3iMager; format: cell-based
Method: In addition, chlorpropamide or MG149 was added to HLF cells on culture plates and the cell death and cell growth suppression rate were inspected using a 3D cell culture spheroid counter Cell 3 i Mager (SCREEN, Inc., Kyoto). […] The rows indicate the days of culture and the columns show the kinds and concentrations of the compounds. The concentrations of chlorpropamide were represented in a ratio when the maximum effective blood concentration was set to 1. As the maximum effective blood concentration of chlorpropamide was used 30 µg/ml (which is a value described in the interview form of a commercially available medicine containing chlorpropamide as an active ingredient).

[2] = target: T1, KAT8 (Homo sapiens, UniProt Q9H7Z6); details: stated as property of the compound, no test described; cited from earlier work
T1 sequence (Q9H7Z6 1-458): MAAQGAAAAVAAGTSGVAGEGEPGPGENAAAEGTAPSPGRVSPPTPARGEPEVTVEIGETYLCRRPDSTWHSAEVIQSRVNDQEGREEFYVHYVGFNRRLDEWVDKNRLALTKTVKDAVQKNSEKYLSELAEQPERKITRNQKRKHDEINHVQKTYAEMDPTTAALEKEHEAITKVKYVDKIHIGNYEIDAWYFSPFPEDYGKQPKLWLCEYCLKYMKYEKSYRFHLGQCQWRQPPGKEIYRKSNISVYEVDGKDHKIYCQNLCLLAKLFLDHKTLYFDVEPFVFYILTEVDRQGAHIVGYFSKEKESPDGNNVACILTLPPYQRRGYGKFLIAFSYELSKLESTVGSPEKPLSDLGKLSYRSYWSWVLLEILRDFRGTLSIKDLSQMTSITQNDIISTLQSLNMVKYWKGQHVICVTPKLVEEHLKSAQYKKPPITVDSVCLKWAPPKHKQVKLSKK

[3] = target: T2, HAT1 (Homo sapiens, UniProt O14929); details: stated as property of the compound, no test described; cited from earlier work
T2 sequence (O14929 1-419): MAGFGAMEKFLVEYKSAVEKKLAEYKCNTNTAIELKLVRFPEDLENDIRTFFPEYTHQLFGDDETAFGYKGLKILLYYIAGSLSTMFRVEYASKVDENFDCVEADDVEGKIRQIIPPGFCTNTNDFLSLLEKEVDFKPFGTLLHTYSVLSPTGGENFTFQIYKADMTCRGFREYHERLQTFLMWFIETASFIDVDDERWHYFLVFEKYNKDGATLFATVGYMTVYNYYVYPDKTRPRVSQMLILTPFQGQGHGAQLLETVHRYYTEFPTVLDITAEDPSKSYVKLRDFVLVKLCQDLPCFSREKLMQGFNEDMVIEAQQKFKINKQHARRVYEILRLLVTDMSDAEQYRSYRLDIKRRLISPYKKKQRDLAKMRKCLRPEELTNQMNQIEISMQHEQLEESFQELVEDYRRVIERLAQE

[4] = system: HLF cells; experiment: Cell growth suppression of HLF cells on culture plates; format: cell-based; details: 360 μg/L, day 3 and day 7
Method: First, HLF cells were cultured on culture plates with RPMI1640 for 7 days. […] In the figures, the “D” denotes days.
Furthermore, rebamipide was added to HLF cells on a culture pate, and the effect on the cells was examined.

[5] = interview form of commercially available medicine; cited from earlier work
[6] = target: T1, KAT8; experiment: FDA library screening (analysis service PLEXERA) and binding strength, KAT8
Source text: (§1) Medicines containing each as an active ingredient (provided that each medicine has an indication other than that for malignant tumors) have already been commercially available.
(§2) Meanwhile, medicines containing each as an active ingredient (provided that each medicine has an indication other than that for malignant tumors) have already been commercially available.

[7] = system: various tumors (cancer and sarcoma types); experiment: Drug sensitivity test, anti-tumor effect on various tumors; format: cell-based; details: within an effective blood concentration or even at the minimum effective blood concentration or less; values only in FIG. 13
Source text: Moreover, how chlorpropamide exerted an anti-tumor effect on various tumors was investigated. Target tumor types, which are classified into cancer (epithelial malignant tumors), include thyroid cancer, malignant brain tumor, malignant melanoma, lung cancer, gastric cancer, liver cancer, pancreatic cancer, colon cancer, cervical cancer, ovarian cancer, bladder cancer, and neuroblastoma. Target tumor types, which are classified into sarcoma (non-epithelial malignant tumors), include fibrosarcoma and osteosarcoma.
The concentrations of chlorpropamide were represented in a ratio when the maximum effective blood concentration was set to 1 as described above. […] The results mean that chlorpropamide can be used as an effective and safe anti-malignant tumor agent acting on various tumors.

[8] = system: HAT1; experiment: Inhibitory effect of low-molecular-weight compounds on expression of HAT1 by RT-PCR; format: cell-based; details: FIG. 6
[9] = system: KAT8; experiment: Inhibitory effect of low-molecular-weight compounds on expression of KAT8 by RT-PCR; format: cell-based; details: FIG. 6
[10] = target: T2, HAT1; experiment: FDA library screening (analysis service PLEXERA) and binding strength, HAT1
Source text: as §1, §2

Compound: CCCCCCCc1ccc(CCc2cccc(O)c2C(=O)O)cc1 [MG149]
cell growth suppression effect ([1]; high concentration (30 μM)): failed to elicit a sufficient cell growth suppression effect | inhibition of KAT8 [2]: inhibits only KAT8 | inhibition of HAT1 [3]: does not inhibit HAT1

Compound: O=C(NC(Cc1cc(=O)[nH]c2ccccc12)C(=O)O)c1ccc(Cl)cc1 (centres unmarked) [Rebamipide, rebamipide]
cell growth suppression effect [4]: no cell growth suppression effect | inhibition of KAT8 [2]: does not inhibit KAT8 | inhibition of HAT1 [3]: inhibits HAT1 | maximum effective blood concentration (Cmax) [5]: 360 ng/mL

inhibition of function of KAT8 [6]: inhibited function of both HAT1 and KAT8 | inhibition of function of HAT1 [10]: inhibited function of both HAT1 and KAT8
Compound: CCCNC(=O)NS(=O)(=O)c1ccc(Cl)cc1 [chlorpropamide]
cell growth suppression effect ([1]; within an effective blood concentration or even at the minimum effective blood concentration or less): elicited a cell growth suppression effect | cell growth suppression effect on various tumors [7]: elicited a cell growth suppression effect on each tumor | inhibitory effect on expression of HAT1 [8]: inhibitory effect | inhibitory effect on expression of KAT8 [9]: inhibitory effect | maximum effective blood concentration (Cmax) [5]: 30000 ng/mL
